Assay results from patent US20150045358A1, “PHARMACEUTICAL COMPOSITION FOR TREATING DISORDERS ASSOCIATED WITH INSULIN RESISTANCE” (National Central University, priority 2012, published 2015).
“Also recorded” adds a separate entry of the source.

What was measured:
ERK1/2 = ERK1/2 phosphorylation in differentiated 3T3-L1 adipocytes (Western blotting); type: cell-based; settings: for basal level of phosphorylation of ERK1/2: inhibitor 1 μM alone, absence of ET-1
Method: (§1) Referring to FIGS. 2A, 2B, 2C, 2D, and 2E which are presented to detect the time-dependent effect of ET-1 on ET-1 signaling molecules, including ERK1 /2, JNKs, p38, […] or STAT3 proteins, the differentiated 3T3-L1 adipocytes are treated with or without 100 nM ET-1 at different time points, such as 2, 5, 15, 30, 120, and 240 minutes. After ET-1 incubation, the total protein amounts and the phosphorylation levels of each ET-1 signaling molecule are determined by Western blotting analysis.
(§2) Referring to FIGS. 3A, 3B, and 3C which are presented to further study the endothelin receptor-dependent of ET-1 on the phosphorylation of downstream signaling molecules and on resistin mRNA expression, the differentiated 3T3-L1 adipocytes are pretreated with or without either 1 μM BQ610 (an ETAR inhibitor) or 1 μM BQ788 (an endothelin type B receptor (ETBR) inhibitor) for 1 hour, and then incubated with 100 nM ET-1. After different time points of ET-1 treatment, ET-1 signaling molecules, such as ERK1/2, JNKs, P38, AKT, and STAT3 proteins, and resistin mRNA levels are determined by Western blotting analysis and PCR analysis, respectively. FIG. 3A, 3B, and 3C are presented with or without 5, 15, and 120 minutes of 100 nM ET-1 treatments, respectively.
(§3) Referring to FIGS. 4A, 4B, 4C, 4D, and 4E which are presented to study the effect of the inhibitors of ET-1 signaling molecules, the differentiated 3T3-L1 adipocytes are pretreated with or without the specific inhibitors of ERK1/2, JNK, AKT, STAT3, or p38 for 30 minutes and then incubated with 100 nM ET-1. These inhibitors comprise 1,4-diamino-2,3-dicyano-1,4-bis [2-aminophenylthio]butadiene (U0126, 25 μM; an ERK1/2 inhibitor), 2-(2-Amino-3-methoxyphenyl)-4H-1-benzopyran-4-one (PD98059, 50 μM; an ERK1/2 inhibitor), anthrapyrazolone (SP600125, 20 μM; a JNK inhibitor), SB203580 (20 μM; a p38 inhibitor), 2-(4-morpholinyl)-8-phenyl-4H-1-benzopyran-4-one (LY294002, 50 μM; a PI3K/AKT inhibitor), wortmannin (0.2 μM; a PI3K/AKT inhibitor), and tyrphostin (AG490, 20 μM; a STAT3 inhibitor). After 5, 15 and 120 minutes of 100-nM ET-1 treatment, the total amounts and the phosphorylation level of the above ET-1 signaling molecules corresponding to the ET-1 stimulated increases in resistin mRNA level are determined by Western blotting analysis.

STAT3 = STAT3 phosphorylation in differentiated 3T3-L1 adipocytes (Western blotting); type: cell-based; settings: for basal level of phosphorylation of STAT3: inhibitor 1 μM alone, absence of ET-1
Method: as §1, §2, §3

AKT = AKT phosphorylation in differentiated 3T3-L1 adipocytes (Western blotting); type: cell-based; settings: for basal level of phosphorylation of AKT: inhibitor 1 μM alone, absence of ET-1
Method: as §1, §2, §3

p38 = p38 phosphorylation in differentiated 3T3-L1 adipocytes (Western blotting); type: cell-based
Method: as §1
as §2, with “treatments, respectively. […]” for “treatments, respectively.”

JNKs = JNKs phosphorylation in differentiated 3T3-L1 adipocytes (Western blotting); type: cell-based; settings: for basal level of phosphorylation of JNKs: inhibitor 1 μM alone, absence of ET-1; for ET-1-stimulated phosphorylation of JNKs: inhibitor 1 μM pretreated 1 hour, then 100 nM ET-1 for 5 or 15 minutes
Method: as §1, §2, §3

resistin mRNA = resistin mRNA level in differentiated 3T3-L1 adipocytes (RT-PCR, real time-PCR); type: cell-based, mouse; settings: for resistin mRNA level: pretreatment with inhibitor 1 μM alone, no ET-1
Method: Referring to FIGS. 1A and 1B which are presented to detect the time-dependent effect of ET-1 on resistin mRNA level, the differentiated 3T3-L1 adipocytes are treated with 100 nM ET-1 at different time periods, including 0, 0.25, 0.5, 1, 2, 4, 6, 8, 12, and 24 hours, After the treatment, resistin mRNA is analyzed by the respective method of reverse transcription-polymerase chain reaction (RT-PCR) (FIG. 1A) and real time-PCR. The forward and reverse primers are [NT] and [NT] for mouse GAP DH and [NT] and [NT] for mouse resistin, respectively. […] The duration of ET-1 incubation that causes the maximum effect on resistin mRNA levels is 2 hours. Referring to FIGS. 1C and 1D which are presented to detect the concentration-dependent effect of ET-1 on resistin mRNA level, the differentiated 3T3-L1 adipocytes are treated with different concentrations of ET-1, such as 0, 10, 50, and 100 nM. After 2 hours of ET-1 incubation, resistin mRNA levels are determined by RT-PCR (FIG. 1C) and by real time-PCR (FIG. 1D). Levels of resistin mRNA are increased by 50%, 100%, and 200% after 10, 50 and 100 nM ET-1 are respectively added. According to the results, 100 nM ET-1 is used in the following embodiments of the present invention for treatment of the differentiated 3T3-L1 adipocytes. […] After different time points of ET-1 treatment, ET-1 signaling molecules, such as ERK1/2, JNKs, P38, AKT, and STAT3 proteins, and resistin mRNA levels are determined by Western blotting analysis and PCR analysis, respectively.

resistin protein = resistin protein level in differentiated 3T3-L1 adipocytes (Western blotting); type: cell-based
Method: Referring to FIG. 4F which detects the concentration-dependent effect of ET-1 on resistin protein level, the differentiated 3T3-L1 adipocytes are treated with different concentrations of ET-1, such as 0, 10, 50, and 100 nM. After ET-1 incubation, resistin protein levels are determined by Western blotting analysis. Levels of resistin protein are increased by about 120%, 130%, and 140% after 10, 50 and 100 nM ET-1 are respectively added.

[1] = inhibitor 50 μM pretreated 30 minutes, then 100 nM ET-1
[2] = inhibitor 20 μM pretreated 30 minutes, then 100 nM ET-1
[3] = inhibitor 1 μM, in the presence and absence of ET-1
[4] = inhibitor 1 μM pretreated 1 hour, then 100 nM ET-1 for 5 or 15 minutes
[5] = 100 nM ET-1, time points 2-240 minutes
[6] = 100 nM ET-1 alone for 5 minutes or 15 minutes

COc1cccc(-c2cc(=O)c3ccccc3o2)c1N [PD98059, 2-(2-Amino-3-methoxyphenyl)-4H-1-benzopyran-4-one]
ET-1-stimulated phosphorylation of ERK1/2 (ERK1/2; [1]): inhibited

N#CC(=C(N)Sc1ccccc1N)C(C#N)=C(N)Sc1ccccc1N [U0126, 1,4-diamino-2,3-dicyano-1,4-bis [2-aminophenylthio]butadiene]
ET-1-stimulated phosphorylation of ERK1/2 (ERK1/2; inhibitor 25 μM pretreated 30 minutes, then 100 nM ET-1): inhibited

tyrphostin [AG490]
ET-1-stimulated phosphorylation of STAT3 (STAT3; [2]): inhibited

O=c1cc(N2CCOCC2)oc2c(-c3ccccc3)cccc12 [LY294002, 2-(4-morpholinyl)-8-phenyl-4H-1-benzopyran-4-one]
ET-1-stimulated phosphorylation of AKT (AKT; [1]): inhibited

C[S+]([O-])c1ccc(-c2nc(-c3ccncc3)c(-c3ccc(F)cc3)[nH]2)cc1 (stereo not shown) [SB203580]
phosphorylation of p38 (p38; [2]): not stimulated by ET-1 or inhibited

CCCC[C@@H](NC(=O)[C@@H](Cc1cn(C(=O)OC)c2ccccc12)NC(=O)[C@H](CC(C)(C)C)NC(=O)N1[C@H](C)CCC[C@@H]1C)C(=O)O [BQ788]
basal level of phosphorylation of JNKs (JNKs): does not alter | ET-1-stimulated phosphorylation of JNKs (JNKs): does not alter | total amounts of JNKs protein (JNKs; [3]): does not alter | basal level of phosphorylation of AKT (AKT): does not alter | ET-1-stimulated phosphorylation of AKT (AKT; [4]): does not alter | total amounts of AKT protein (AKT; [3]): does not alter | basal level of phosphorylation of ERK1/2 (ERK1/2): does not alter | ET-1-stimulated phosphorylation of ERK1/2 (ERK1/2; [4]): does not alter | total amounts of ERK1/2 protein (ERK1/2; [3]): does not alter | resistin mRNA level (resistin mRNA): does not alter | basal level of phosphorylation of STAT3 (STAT3): does not alter | ET-1-stimulated phosphorylation of STAT3 (STAT3; [4]): does not alter | total amounts of STAT3 protein (STAT3; [3]): does not alter

ET-1: endothelin-1, one of the strongest vasoconstrictors; stimulus used on 3T3-L1 adipocytes
time of maximum phosphorylation of JNKs (JNKs; [5]): 15 min | phosphorylation of JNKs (JNKs; [6]): increased phosphorylation | phosphorylation of AKT (AKT; [6]): increased phosphorylation | time of maximum phosphorylation of ERK1/2 (ERK1/2; [5]): 2 min | phosphorylation of ERK1/2 (ERK1/2; [6]): increased phosphorylation | increase of resistin protein levels (resistin protein; 10 nM ET-1): about 120% | increase of resistin protein levels (resistin protein; 50 nM ET-1): ~130% | increase of resistin protein levels (resistin protein; 100 nM ET-1): ~140% | increase of resistin mRNA levels (resistin mRNA; 10 nM ET-1, 2 hours): 50% | increase of resistin mRNA levels (resistin mRNA; 50 nM ET-1, 2 hours): 100% | increase of resistin mRNA levels (resistin mRNA; 100 nM ET-1, 0.25-12 hours after treatment, differentiated 3T3-L1 adipocytes): 100-250% | increase of resistin mRNA levels (resistin mRNA; 100 nM ET-1, 2 hours): 200% | duration of ET-1 incubation that causes the maximum effect on resistin mRNA levels (resistin mRNA; 100 nM ET-1, time course 0-24 hours): 2 h | phosphorylation of p38 on ET-1 stimulation (p38; 100 nM ET-1): not altered; also recorded: not stimulated | phosphorylation of STAT3 (STAT3; [6]): increased phosphorylation

CC(C)C[C@H](NC(=O)N1CCCCCC1)C(=O)N[C@H](Cc1cn(C=O)c2ccccc12)C(=O)N[C@H](Cc1c[nH]c2ccccc12)C(=O)O [BQ610]
basal level of phosphorylation of JNKs (JNKs): does not alter | ET-1-stimulated phosphorylation of JNKs (JNKs): inhibits | basal level of phosphorylation of AKT (AKT): does not alter | ET-1-stimulated phosphorylation of AKT (AKT; [4]): inhibits | basal level of phosphorylation of ERK1/2 (ERK1/2): does not alter | ET-1-stimulated phosphorylation of ERK1/2 (ERK1/2; [4]): inhibits | ET-1-stimulated resistin mRNA expression (resistin mRNA; inhibitor 1 μM pretreated 1 hour, then 100 nM ET-1 for 120 minutes): suppresses | resistin mRNA level (resistin mRNA): does not alter | basal level of phosphorylation of STAT3 (STAT3): does not alter | ET-1-stimulated phosphorylation of STAT3 (STAT3; [4]): inhibits
